Laboratory results published in ChEMBL document CHEMBL5325399, “Pleiotropic effects of a mitochondrion-targeted glutathione reductase inhibitor on restraining tumor cells” (Eur J Med Chem, 2023).
Activity calls are given as the source filed them. The rule behind the calls is not given here.

How the values were obtained:
Cell membrane [1] = test: Dissipation of mitochondrial membrane potential in human HeLa cells assessed as proportion of cells with low MMP measured after 24 hrs by JC-1 staining based flow cytometry (reference value: 3.01%); settings: Mitochondria
Cell membrane [2] = test: Dissipation of mitochondrial membrane potential in human HeLa cells assessed as proportion of cells with high MMP measured after 24 hrs by JC-1 staining based flow cytometry (reference value: 96.54%); settings: Mitochondria
HepG2 [3] = test: Cytotoxicity against human HepG2 cells assessed as reduction in cell viability measured after 48 hrs; format: functional, cell-based; settings: HepG2, 48 h
HeLa [4] = test: Cytotoxicity against human HeLa cells assessed as reduction in cell viability measured after 48 hrs; format: functional, cell-based
[5] = biological target: T1, Glutathione reductase, mitochondrial (Homo sapiens) (UniProt P00390); test: Covalent binding affinity to Cys278 residue of glutathione reductase (unknown origin) by mass spectrometry
T1 sequence (whole entry): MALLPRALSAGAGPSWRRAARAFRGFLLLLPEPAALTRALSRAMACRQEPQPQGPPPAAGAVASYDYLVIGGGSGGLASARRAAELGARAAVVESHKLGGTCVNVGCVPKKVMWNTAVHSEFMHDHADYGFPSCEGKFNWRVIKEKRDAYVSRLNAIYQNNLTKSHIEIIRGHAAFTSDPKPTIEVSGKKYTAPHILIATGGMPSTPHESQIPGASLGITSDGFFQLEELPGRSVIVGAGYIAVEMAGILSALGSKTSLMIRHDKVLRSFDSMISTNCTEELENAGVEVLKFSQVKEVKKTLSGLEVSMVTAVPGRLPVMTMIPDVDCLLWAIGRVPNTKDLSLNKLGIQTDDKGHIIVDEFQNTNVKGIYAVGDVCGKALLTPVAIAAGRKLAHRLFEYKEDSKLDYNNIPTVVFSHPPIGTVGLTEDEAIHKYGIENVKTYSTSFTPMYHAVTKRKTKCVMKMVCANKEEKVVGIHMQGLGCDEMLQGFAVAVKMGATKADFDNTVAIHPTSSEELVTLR

MCF7 = test: Cytotoxicity against human MCF7 cells assessed as reduction in cell viability measured after 48 hrs; format: functional, cell-based; settings: MCF7, 48 h
[6] = Drug uptake in human HeLa cells mitochondria measured after 6 hrs; format: ADME
HCT-116 = test: Cytotoxicity against human HCT-116 cells assessed as reduction in cell viability measured after 48 hrs; format: functional, cell-based; settings: HCT-116, 48 h
[7] = biological target: T2, Glutathione reductase, mitochondrial (Homo sapiens, UniProt P00390); test: Inhibition of glutathione reductase (unknown origin)
T2 sequence (P00390 whole entry): T1 sequence (whole entry)

A549 = test: Cytotoxicity against human A549 cells assessed as reduction in cell viability measured after 48 hrs; format: functional, cell-based; settings: A549, 48 h
HeLa [8] = test: Induction of autophagy in human HeLa cells assessed as increase in ratio of lipidated LC3B-II to LC3B-I incubated for 24 hrs by immunoblotting analysis; format: functional, cell-based; settings: dose 0.5-10 µM
HeLa [9] = test: Decrease in reduced glutathione (GSH) levels in human HeLa cells; format: functional, cell-based
HeLa [10] = test: Inhibition of mitochondrial respiration in human HeLa cells assessed as decrease in basal respiration; format: functional, cell-based
HeLa [11] = test: Decrease in reduced glutathione (GSH) levels in human HeLa cells at 1 to 5 uM incubated for 6 hrs by Thiol-tracker Violet based confocal imaging analysis; format: functional, cell-based; settings: dose 1-5 µM
HeLa [12] = test: Cytotoxicity against GR-knock out human HeLa cells assessed as reduction in cell viability at 10 uM incubated for 48 hrs; format: functional, cell-based
HeLa [13] = test: Induction of mitochondrial morphological changes in human HeLa cells assessed as increase in Mitofilin expression at 2 uM by immunofluorescence analysis; format: functional, cell-based
HeLa [14] = test: Induction of ROS production in human HeLa cells by DCFDA staining based fluorescence analysis; format: functional, cell-based
HepG2 [15] = test: Inhibition of mitochondrial respiration in human HepG2 cells assessed as decrease in oxygen consumption rate by Seahorse XF-bioenergetic system analysis; format: functional, cell-based
HeLa [16] = test: Induction of autophagy in human HeLa cells assessed as downregulation of p62 expression incubated for 24 hrs by immunoblotting analysis; format: functional, cell-based; settings: dose 0.5-10 µM
Cell membrane [17] = test: Dissipation of mitochondrial membrane potential in human HeLa cells assessed as proportion of cells with low MMP at 5 uM measured after 24 hrs by JC-1 staining based flow cytometry (reference value: 3.01%); settings: Mitochondria
HeLa [18] = test: Inhibition of mitochondrial respiration in human HeLa cells assessed as increase in proton leakage; format: functional, cell-based
HeLa [19] = test: Induction of mitophagy in human HeLa cells assessed as colocalization of mitochondria and lysosomes by confocal laser scanning microscopy; format: functional, cell-based
HeLa [20] = test: Inhibition of mitochondrial respiration in human HeLa cells assessed as decrease in oxygen consumption rate at 2 uM incubated for 24 hrs by Seahorse XF-bioenergetic system analysis; format: functional, cell-based
HeLa [21] = test: Induction of mitophagy in human HeLa cells assessed as localization of mitochondria in vacuoles at 10 uM incubated for 48 hrs by transmission electron microscopy; format: functional, cell-based
Cell membrane [22] = test: Dissipation of mitochondrial membrane potential in human HeLa cells assessed as proportion of cells with high MMP at 5 uM measured after 24 hrs by JC-1 staining based flow cytometry (reference value: 96.54%); settings: Mitochondria
Cell membrane [23] = test: Dissipation of mitochondrial membrane potential in human HeLa cells assessed as proportion of cells with high MMP at 0.5 uM measured after 24 hrs by JC-1 staining based flow cytometry (reference value: 96.54%); settings: Mitochondria
Cell membrane [24] = test: Dissipation of mitochondrial membrane potential in human HeLa cells assessed as increase in green fluorescence intensity at 0.5 to 5 uM measured after 24 hrs by JC-1 staining based fluorescence microscopy; settings: Mitochondria, dose 0.5-5 µM
[25] = Increase in oxidized glutathione (GSSG) levels in human HeLa cells relative to control; format: functional
HeLa [26] = test: Inhibition of glycolysis in human HeLa cells assessed as decrease in extracellular acidification rate at 2 uM; format: functional, cell-based
[27] = biological target: T1, Glutathione reductase, mitochondrial (Homo sapiens); test: Inhibition of glutathione reductase in human HeLa cells mitochondria; settings: concentration not given here
HeLa [28] = test: Induction of autophagy in human HeLa cells assessed as autophagosomes vacuole formation; format: functional, cell-based
Cell membrane [29] = test: Dissipation of mitochondrial membrane potential in human HeLa cells assessed as proportion of cells with low MMP at 0.5 uM measured after 24 hrs by JC-1 staining based flow cytometry (reference value: 3.01%); settings: Mitochondria
[30] = biological target: T1, Glutathione reductase, mitochondrial (Homo sapiens); test: Inhibition of glutathione reductase in human HeLa cells; format: cell-based; settings: concentration not given here
HepG2 [31] = test: Inhibition of glycolysis in human HepG2 cels assessed as decrease in extracellular acidification rate; format: functional, cell-based
HeLa [32] = test: Induction of mitochondrial morphological changes in human HeLa cells assessed as disappearance of cristae and vacuolar mitochondrial formation at 10 uM incubated for 48 hrs by transmission electron microscopy; format: functional, cell-based
HeLa [33] = test: Inhibition of mitochondrial respiration in human HeLa cells assessed as decrease in ATP production capacity; format: functional, cell-based
HeLa [34] = test: Induction of mitochondrial morphological changes in human HeLa cells assessed as multilayered vesicles formation at IC50 incubated for 48 hrs by transmission electron microscopy; format: functional, cell-based
HeLa [35] = test: Increase in oxidized glutathione (GSSG) levels in human HeLa cells assessed as decrease in ratio of intracellular GSH to GSSG at 1 to 20 uM; format: functional, cell-based; settings: dose 1-20 µM

SMILES: N#CC(C#N)=NNc1cccc(Cl)c1
- Activity (Cell membrane [1]): 98.8%
- Activity (Cell membrane [2]): 1.24%

SMILES: COc1ccc(C(=O)/C=C/c2cccc([N+](=O)[O-])c2)cc1F
- IC50 (HepG2 [3]): > 50 µM
- IC50 (HeLa [4]): > 50 µM
- Activity [5]: inactive
- IC50 (MCF7): > 100 µM
- Drug uptake [6]: 12%
- IC50 (HCT-116): > 50 µM
- IC50 [7]: Not Active
- IC50 (A549): > 100 µM

SMILES: O=C(/C=C/c1cccc([N+](=O)[O-])c1)c1ccc(OCc2cn(CCCC[P+](c3ccccc3)(c3ccccc3)c3ccccc3)nn2)c(F)c1
- Activity (HeLa [8]): Dose-Dependent Effect
- inhibition (HeLa [9]): inactive
- inhibition (HeLa [10]): Active
- IC50 (HepG2 [3]): 4.6 µM
- inhibition (HeLa [11]): inactive
- Activity (HeLa [12]): inactive
- IC50 (HeLa [4]): 2.4 µM
- Activity (HeLa [13]): Active
- Activity (HeLa [14]): Active
- inhibition (HepG2 [15]): Active
- Activity [5]: Active
- Activity (HeLa [16]): Dose-Dependent Effect
- Activity (Cell membrane [17]): 80.7%
- inhibition (HeLa [18]): Active
- Activity (HeLa [19]): Active
- inhibition (HeLa [20]): Active
- Activity (HeLa [21]): Active
- IC50 (MCF7): 17.4 µM
- Activity (Cell membrane [22]): 15.6%
- Drug uptake [6]: 33%
- Activity (Cell membrane [23]): 49.4%
- Activity (Cell membrane [24]): Active
- fold change (FC) [25]: 2
- inhibition (HeLa [26]): Active
- inhibition [27]: 50%
- Activity (HeLa [28]): Active
- Activity (Cell membrane [29]): 50.1%
- inhibition [30]: 20%
- inhibition (HepG2 [31]): Active
- IC50 (HCT-116): 8.2 µM
- Activity (HeLa [32]): Active
- inhibition (HeLa [33]): Active
- IC50 ([7]; read-out: IC50): 0.59 µM
- Activity (HeLa [34]): Active
- IC50 (A549): 10.2 µM
- Activity (HeLa [35]): Active
